Results from patent US10494404B2, “Quinolinium conjugates of cyclosporin” (priority 2014, dated 2019).
“Also recorded” adds a separate entry of the source.

Test system: experimental autoimmune encephalomyelitis (EAE)
Test: Relapsing-progressive experimental autoimmune encephalomyelitis (EAE) in ABH mice
Assay type: in vivo, mouse
Procedure: ABH mice were injected with 1 mg mouse spinal cord homogenate in Freund's adjuvant on days 0 and 7 post-induction to induce EAE and this was repeated on day 28 post-induction to induce a relapse.
Animals were monitored for the development of clinical disease and the results in FIG. 1 represent the mean daily clinical score after induction of relapse.
Mice were injected subcutaneously (s.c.) with 1 mg freeze-dried mouse spinal cord homogenate (SCH) in Freunds adjuvant on day zero and seven as described previously (Al-Izki et al, 2012a). After the initial paralytic disease and subsequent remission, a relapse was induced by a further injection of SCH in Freunds incomplete adjuvant on day 28 to induce a relapse 7 days later (Al-Izki et al, 2012a). Studies were randomised, blinded and powered as described previously (Al-Izki et al, 2012a). Neurological scores were graded as 0=normal; 1=limp tail, 2=impaired righting reflex, 3=hindlimb paresis, 4=complete hindlimb paralysis, and 5=moribund/death (Al-Izki et al, 2012a). Results are expressed as mean±SEM maximum or minimum neurological score and mean day of onset±SD. Differences between groups were assessed using Mann Whitney U statistics (Al-Izki et al, 2012a). Motor control and co-ordination was assessed on an accelerating (4-40 rpm, accelerating at 6 rpm/25 s) RotaRod (ENV-575M, Med Associates Inc, St. Albans, Vt., USA) as described previously (Al-Izki et al, 2012a). This was performed one day before induction of relapse and at the termination of the experiment on day 45. RotaRod assessment was performed blinded to treatment. Animals were randomised to vehicle or treatment based on their RotaRod scores. Results are expressed as mean±SEM time that animals maintained rotarod activity. Differences between groups were assessed using Students t test, incorporating a test for equality of variance and normality (Al-Izki et al, 2012a). At the end of the experiment the spinal cord was removed and an enzyme linked immunosorbent assay (ELISA) for heavy chain neurofilament on spinal cord was performed and total nerve content of each spinal cord was estimated following calibration against neurofilament protein standards as described previously (Jackson et al, 2005); (Al-Izki et al, 2012a).
Neurofilament level as a correlate of spinal cord axonal content was determined as followed. Spinal cords were collected from the spinal columns of untreated (n=11) and Compound 11 mg/kg treated (n=13) animals at the second remission phase of disease post relapse at day 45 post disease induction. Tissues snap frozen and stored at −80° C. prior to homogenisation. Tissues were homogenised in a glass homogeniser in 1 ml/100 mg of spinal cord tissue wet weight homogenisation buffer (0.2 mM PMSF, 1 mM EDTA, 1 mM EGTA, 4M Urea, 10 mM Tris-HCl Sigma UK, pH 7.2,) plus 1:100 HALT protease inhibitor cocktail (Thermo Fisher, UK) and further homogenised by sonication twice for 10 seconds (Cole-Parmer Instruments, USA). Samples were spun down at 13,000 rpm in a bench top centrifuge (Eppendorf, UK) and the supernatant was collected and stored at −80° C. prior to neurofilament determination. Samples were thawed on ice and an enzyme linked immunosorbent assay for heavy chain neurofilament was performed. Briefly, a 96 well plate was coated overnight at 4° C. with capture antibody (1:5000 SMI-35 anti-neurofilament H. Covance Inc. Cambridge Bioscience, Cambridge, UK) in coating buffer (0.15M Na2CO3, 0.35M NaHCO3, Sigma, UK, pH 9.6. Following one wash in wash buffer (150 mM NaCl, 10 mM Tris-HCl, 0.1% Tween 20, Sigma, UK pH 7.5), non-specific binding was blocked by incubation with 5% bovine serum albumin (Sigma, UK) in wash buffer for 1 hour at room temperature. Following a wash step, samples and standards (Porcine neurofilament heavy chain, Chemicon International, UK) were diluted in wash buffer with 1% bovine serum albumin and incubated on the plate for 1 hour at room temperature. […]

In the case of CC[C@@H]1NC(=O)[C@H]([C@H](O)[C@H](C)C/C=C/CCC[n+]2cccc3ccccc32)N(C)C(=O)[C@H](C(C)C)N(C)C(=O)[C@H](CC(C)C)N(C)C(=O)[C@H](CC(C)C)N(C)C(=O)[C@@H](C)NC(=O)[C@H](C)NC(=O)[C@H](CC(C)C)N(C)C(=O)[C@H](C(C)C)NC(=O)[C@H](CC(C)C)N(C)C(=O)CN(C)C1=O [Compound 1, [Gly-(1S,2R,E)-8-quinolinium-1-hydroxy-2-methyloct-4-ene]^1 CsA], the “mean daily clinical score after induction of relapse” value (1 mg/kg i.p. daily from day 33) is reported as “inhibits the accumulation of neurological deficit; also recorded: has neuroprotective properties”, the “loss of axons within the spinal cord” value (1 mg/kg i.p., vs vehicle) is reported as “lost significantly (P<0.01) less nerves (FIG. 7B) and axons” and the “loss of motor co-ordination” value (1 mg/kg i.p., vs vehicle) is reported as “significantly (P<0.001) less loss of motor co-ordination”. For the same compound, the “loss of nerves within the spinal cord (neurofilament ELISA)” value (1 mg/kg i.p., vs vehicle) was “lost significantly (P<0.01) less nerves”, the “rotarod activity (time on accelerating rotarod)” value (day 27, first remission, before treatment) was 168.8 ± 21.8 s and the “rotarod activity (time on accelerating rotarod)” value (second remission after relapse (day 45), 1 mg/kg i.p.) was 135.0 ± 42.9 s.
